We go through 29 compounds from US8440837B2, “2-substituted-ethynylthiazole derivatives and uses of same” (H. Lundbeck A/S, priority 2009, dated 2013).

Test [1] addresses human metabotropic glutamate receptor 5 (hmGluR5). Kind of test: Calcium mobilization (FLIPR) assay, negative allosteric modulation of the EC80 glutamate response. Type of test: cell-based. To be noted: HEK 293 cells, inhibition of EC80 glutamate response. On the procedure:
(§1) The cDNA for human metabotropic glutamate receptor 5 (hmGluR5) was a generous gift from S. Nakanishi (Kyoto University, Kyoto, Japan). The […] was stably expressed in a HEK 293 cell line and grown in Dulbecco's Modified Eagle Medium (DMEM) (Invitrogen, Carlsbad, Calif.) with supplements (10% bovine calf serum, 4 mM glutamine, 100 units/mL penicillin, 100 μg/mL streptomycin and […]) at 37° C., 5% CO2. Twenty-four hours prior to assay, cells were seeded into 384-well black wall microtiter plates coated with poly-D-lysine. Just prior to assay, media was aspirated and cells dye-loaded (25 μL/well) with 3 μM Fluo-4/0.01% pluronic acid in assay buffer (Hank's Balanced Saline Solution (HBSS)): 150 mM NaCl, 5 mM KCl, 1 mM CaCl2, 1 mM MgCl2, plus 20 mM N-2-Hydroxyethylpiperazine-N′-2-ethanesulfonic acid (HEPES), pH 7.4, 0.1% bovine serum albumin (BSA) and 2.5 mM probenicid) for 1 hour in 5% CO2 at 37° C. After excess dye was discarded, cells were washed in assay buffer and layered with a final volume equal to 30 μL/well. Basal fluorescence is monitored in a fluorometric imaging plate reader (FLIPR) (Molecular Devices, Sunnyvale, Calif.) with an excitation wavelength of 488 nm and an emission range of 500 to 560 nm. Laser excitation energy was adjusted so that basal fluorescence readings were approximately 10,000 relative fluorescent units. Cells were stimulated with an EC20 or an EC80 concentration of glutamate in the presence of a compound to be tested, both diluted in assay buffer, and relative fluorescent units were measured at defined intervals (exposure=0.6 sec) over a 3 min period at room temperature. Basal readings derived from negative controls were subtracted from all samples. Maximum change in fluorescence was calculated for each well. Concentration-response curves derived from the maximum change in fluorescence were analyzed by nonlinear regression (Hill equation).
A negative allosteric modulator (NAM) can be identified from these concentration-response curves if a compound produces a concentration dependent inhibition of the EC80 glutamate response.

In test [2] the target is human metabotropic glutamate receptor 5 (hmGluR5) (UniProt P31424). Kind of test: Calcium mobilization (FLIPR) assay, positive allosteric modulation of the EC20 glutamate response. To be noted: HEK 293 cells; for maximum modulation (Emax): EC20 glutamate response; for EC50: increase in EC20 glutamate response. Type of test: cell-based. As for the experimental part:
as §1
A silent allosteric modulator (SAM) can be identified by using a combination of both the calcium mobilization assay data and the radioligand binding data. As used herein, the term “silent allosteric modulator” refers to a ligand that binds to an allosteric site of the receptor but has no measurable intrinsic efficacy.
For orientation: A change in cytosolic calcium serves as a functional read-out for many receptors and channels.

Another test addresses mGluR5 (Homo sapiens, UniProt P41594). Kind of test: [3H] MPEP radioligand filtration binding assay on membrane homogenates. To be noted: 5 nM [3H] MPEP, Cheng-Prusoff from IC50. On the procedure:
Binding assays were performed as described in [J. A. O'Brien et al. Mol. Pharmacol., 2003, 64, 731-740] with slight modifications. Briefly, after thawing, the membrane homogenates were resuspended in 50 mM Tris-HCl, 0.9% NaCl binding buffer at pH 7.4 to a final assay concentration of 20 μg protein/well for [^3H] […] ([^3H] MPEP) (American Radiolabeled Chemicals, Inc., St. Louis, Mo.) filtration binding. Incubations included 5 nM [^3H] MPEP, membranes and either buffer or varying concentrations of compound. Samples were incubated for 60 min at room temperature with shaking. Non-specific binding was defined with 10 μM MPEP. After incubation, samples were filtered over a GF/C filter (presoaked in 0.25% polyethyleneimine (PEI)) and then washed 4 times using a Tomtec® Harvester 96® Mach III cell harvester (Tomtec, Hamden, Conn.) with 0.5 mL ice-cold 50 mM Tris-HCl (pH 7.4).
IC50 values were derived from the inhibition curve and Ki values were calculated according to the Cheng and Prusoff equation of Ki=IC50/(1+[L]/Kd) described in [Y. Cheng and W. H. Prusoff Biochem. Pharmacol. 1973, 22, 3099-3108] where [L] is the concentration of radioligand and Kd is its dissociation constant at the receptor, derived from the saturation isotherm.

Test [3] deals with working memory processes (cognition). As to the kind of experiment: Novel object recognition (NOR) test. To be noted: 1.0 mg/kg, po in rats, FIG. 2. In kind it is in vivo, rats. As for the experimental part:
Cognition can be assessed by the novel object recognition (NOR). NOR can be used to access cognitive performance with respect to processes of working memory, such as recognition, interpretation and appropriate response. The NOR test was performed using the compound of Example 1 and reference compound in vehicle of 20% β-cyclodextrin (βCD) in dH2O. Example 1 (at 3.0 mg/kg, ip in rats) has activity as measured in the NOR test. Along with Example 1, Examples 2, 12 and 35 (at 1.0 mg/kg, po in rats) have activity as measured in the NOR test.

mGluR5, sequence (P41594 21-1212): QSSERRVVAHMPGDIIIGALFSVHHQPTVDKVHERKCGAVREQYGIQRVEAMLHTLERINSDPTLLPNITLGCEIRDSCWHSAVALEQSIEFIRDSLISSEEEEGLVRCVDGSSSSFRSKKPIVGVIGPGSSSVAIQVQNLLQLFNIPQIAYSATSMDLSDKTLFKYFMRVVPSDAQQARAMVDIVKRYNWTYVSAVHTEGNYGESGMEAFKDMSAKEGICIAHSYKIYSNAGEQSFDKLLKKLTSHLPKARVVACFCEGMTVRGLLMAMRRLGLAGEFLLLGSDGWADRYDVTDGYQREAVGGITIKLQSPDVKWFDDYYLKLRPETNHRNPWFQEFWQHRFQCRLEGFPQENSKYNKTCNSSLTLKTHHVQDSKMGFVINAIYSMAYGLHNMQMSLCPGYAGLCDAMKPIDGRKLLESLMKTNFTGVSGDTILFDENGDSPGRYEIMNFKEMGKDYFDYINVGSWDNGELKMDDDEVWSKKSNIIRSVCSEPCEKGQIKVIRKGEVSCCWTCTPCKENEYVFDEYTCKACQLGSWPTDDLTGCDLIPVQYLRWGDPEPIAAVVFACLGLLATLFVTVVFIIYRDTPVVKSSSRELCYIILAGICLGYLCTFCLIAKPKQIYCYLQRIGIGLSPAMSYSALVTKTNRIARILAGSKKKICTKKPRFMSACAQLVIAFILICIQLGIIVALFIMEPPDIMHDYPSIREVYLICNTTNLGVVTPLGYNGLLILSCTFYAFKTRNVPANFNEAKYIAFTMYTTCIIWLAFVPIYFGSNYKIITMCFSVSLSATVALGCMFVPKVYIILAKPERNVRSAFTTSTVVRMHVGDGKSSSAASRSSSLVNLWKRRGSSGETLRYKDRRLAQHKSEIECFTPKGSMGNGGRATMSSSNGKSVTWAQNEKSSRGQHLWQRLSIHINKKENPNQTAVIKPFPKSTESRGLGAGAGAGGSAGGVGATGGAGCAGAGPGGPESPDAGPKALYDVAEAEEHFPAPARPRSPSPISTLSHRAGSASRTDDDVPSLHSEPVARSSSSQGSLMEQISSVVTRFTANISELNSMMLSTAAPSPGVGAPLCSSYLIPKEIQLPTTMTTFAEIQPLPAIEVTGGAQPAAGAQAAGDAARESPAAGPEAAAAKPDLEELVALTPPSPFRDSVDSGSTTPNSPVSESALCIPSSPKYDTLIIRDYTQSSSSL

`COCC1CCCN(C(=O)c2cnc(C#Cc3ccccc3)s2)C1` (centres unmarked) [Example 123, (3-Methoxymethyl-piperidin-1-yl)-(2-phenylethynyl-thiazol-5-yl)-methanone]: in test [1], the IC50 amounted to 33 nM.

On to `O=C(c1cnc(C#Cc2ccccc2)s1)N1CCC(O)CC1` [Example 12, (4-Hydroxy-piperidin-1-yl)-(2-phenylethynyl-thiazol-5-yl)-methanone], for which, in test [2], the “maximum modulation (Emax)” value amounted to 170% and the EC50 amounted to 280 nM. On mGluR5, this compound displayed a Ki of 7170 nM. Besides, in test [3], the “activity in the NOR test” value was “have activity”. For `O=C(c1cnc(C#Cc2ccccn2)s1)N1CCCCC1` [Example 191, Piperidin-1-yl-(2-pyridin-2-ylethynyl-thiazol-5-yl)-methanone], in test [1], the 50% inhibitory concentration (IC50) is 29 nM.

`O=C(c1cnc(C#Cc2cccc(F)c2)s1)N1CCOCC1` [Example 22, [2-(3-Fluoro-phenylethynyl)-thiazol-5-yl]-morpholin-4-yl-methanone] yielded an inhibitory constant (Ki) on mGluR5 of 300 nM. The compound `O=C(c1cnc(C#Cc2ccccc2)s1)N1CCOCC1` [Example 7, Morpholin-4-yl-(2-phenylethynyl-thiazol-5-yl)-methanone] came in with a Ki on mGluR5 of 860 nM. Take `O=C(c1cnc(C#Cc2ccccc2)s1)N1CC[C@@H](F)C1` [Example 6, ((R)-3-Fluoro-pyrrolidin-1-yl)-(2-phenylethynyl-thiazol-5-yl)-methanone]: the concentration for half-maximal inhibition (IC50) in test [1] came out at 37 nM. Same read-out and setting: in the case of `Cc1nc(C#Cc2ccccc2)sc1C(=O)NC1CCCC1` [Example 16, 4-Methyl-2-phenylethynyl-thiazole-5-carboxylic acid cyclopentylamide] it was 36 nM.

With `CC(O)(c1ccccc1)c1cnc(C#Cc2ccccc2)s1` (centres unmarked) [Example 240, 1-Phenyl-1-(2-phenylethynyl-thiazol-5-yl)-ethanol], the IC50 in test [1] worked out at 140 nM. As to `O=C(c1cnc(C#Cc2ccccc2)s1)N1CC(F)(F)C1` [Example 114, (3,3-Difluoro-azetidin-1-yl)-(2-phenylethynyl-thiazol-5-yl)-methanone], the IC50 in test [1] was 54 nM. Turning to `Cc1cccc(C#Cc2ncc(C(=O)NC3CCCC3)s2)c1` [Example 24, 2-m-Tolylethynyl-thiazole-5-carboxylic acid cyclopentylamide], the IC50 in test [1] was found to be 0.7 nM.

Regarding `O=C(c1cnc(C#Cc2ccccn2)s1)N1CCCC1` [Example 198, (2-Pyridin-2-ylethynyl-thiazol-5-yl)-pyrrolidin-1-yl-methanone], the IC50 in test [1] worked out at 20 nM. As to `CC(C)(C)OC(=O)N1CC2CN(C(=O)c3cnc(C#Cc4ccccc4)s3)CC2C1` (centres unmarked) [Example 171, 5-(2-Phenylethynyl-thiazole-5-carbonyl)-hexahydro-pyrrolo[3,4-c]pyrrole-2-carboxylic acid tert-butyl ester], the IC50 in test [1] is 25 nM. Take `Cc1cccc(C#Cc2ncc(C(=O)N3CCCCC3)s2)n1` [Example 193, [2-(6-Methyl-pyridin-2-ylethynyl)-thiazol-5-yl]-piperidin-1-yl-methasone]: the IC50 in test [1] came out at 29 nM.

With `O=C(c1cnc(C#Cc2ccccc2)s1)N1CCC(F)(F)C1` [Example 115, (3,3-Difluoro-pyrrolidin-1-yl)-(2-phenylethynyl-thiazol-5-yl)-methanone], in test [1], the IC50 amounted to 31 nM.

For the compound `O=C(c1cnc(C#Cc2ccccc2)s1)N1CCCC1` [Example 4, (2-Phenylethynyl-thiazol-5-yl)-pyrrolidin-1-yl-methanone], the IC50 in test [1] is 3.2 nM.

On to `COC[C@@H]1CCCN1C(=O)c1cnc(C#Cc2ccccc2)s1` [Example 168, ((S)-2-Methoxymethyl-pyrrolidin-1-yl)-(2-phenylethynyl-thiazol-5-yl)-methanone], for which, in test [1], the IC50 came to 27 nM.

`CC(c1cnc(C#Cc2ccccc2)s1)N1CCCCC1` (centres unmarked) [Example 231, 1-[1-(2-Phenylethynyl-thiazol-5-yl)-ethyl]-piperidine]: the IC50 in test [1] was determined as 700 nM. `O=C(c1cnc(C#Cc2ccccc2)s1)N1CC[C@H](F)C1` [Example 5, ((S)-3-Fluoro-pyrrolidin-1-yl)-(2-phenylethynyl-thiazol-5-yl)-methanone]: the IC50 in test [1] was determined as 3.2 nM.

Take `O=C(c1cnc(C#Cc2cccc(F)c2)s1)N1CCCC1` [Example 21, [2-(3-Fluoro-phenylethynyl)-thiazol-5-yl]-pyrrolidin-1-yl-methanone]: the IC50 in test [1] stood at 7.1 nM. In the case of `Cc1nc(C#Cc2ccccc2)sc1C(=O)N1CCCCC1` [Example 13, (4-Methyl-2-phenylethynyl-thiazol-5-yl)-piperidin-1-yl-methanone], the IC50 in test [1] worked out at 53 nM. `O=C(c1cnc(C#Cc2cccc(Cl)c2)s1)N1CCCCC1` [Example 35, [2-(3-Chloro-phenylethynyl)-thiazol-5-yl]-piperidin-1-yl-methanone]: the “activity in the NOR test” value in test [3] is recorded as “have activity”. Regarding `CC1(O)CCN(C(=O)c2cnc(C#Cc3ccccc3)s2)CC1` [Example 80, (4-Hydroxy-4-methyl-piperidin-1-yl)-(2-phenylethynyl-thiazol-5-yl)-methanone], in test [2], the “maximum modulation (Emax)” value is 120% and the EC50 worked out at 290 nM. Regarding `O=C(c1cnc(C#Cc2ccccc2)s1)N1CCC(C(F)(F)F)CC1` [Example 111, (2-Phenylethynyl-thiazol-5-yl)-(4-trifluoromethyl-piperidin-1-yl)-methanone], in test [2], the “maximum modulation (Emax)” value was found to be 130% and the EC50 stood at 64 nM. On to `CC1CCN(C(=O)c2cnc(C#Cc3ccccc3)s2)CC1` [Example 11, (4-Methyl-piperidin-1-yl)-(2-phenylethynyl-thiazol-5-yl)-methanone], for which, in test [2], the “maximum modulation (Emax)” value turned out to be 150% and the EC50 stood at 3.5 nM. On mGluR5, this compound came in with a Ki of 135 nM. As for `O=C(c1cnc(C#Cc2ccccc2)s1)N1C2CCC1CC2` [Example 145, (7-Aza-bicyclo[2.2.1]hept-7-yl)-(2-phenylethynyl-thiazol-5-yl)-methanone], in test [1], the concentration for half-maximal inhibition (IC50) was determined as 5 nM. For `C(#Cc1ncc(CN2CCCCC2)s1)c1ccccc1` [Example 206, 1-(2-Phenylethynyl-thiazol-5-ylmethyl)-piperidine], in test [2], the “maximum modulation (Emax)” value is listed as 130% and the EC50 was determined as 97 nM. With `O=C(c1ccccc1)c1cnc(C#Cc2ccccc2)s1` [Example 237, Phenyl-(2-phenylethynyl-thiazol-5-yl)-methanone], in test [1], the IC50 is 360 nM.

On to `O=C(c1cnc(C#Cc2ccccc2)s1)N1CC2CNCC2C1` (centres unmarked) [Example 173, (Hexahydro-pyrrolo[3,4-c]pyrrol-2-yl)-(2-phenylethynyl-thiazol-5-yl)-methasone], for which the IC50 in test [1] was found to be 440 nM.

In the case of `COC1CCN(C(=O)c2cnc(C#Cc3ccccc3)s2)CC1` [Example 121, (4-Methoxy-piperidin-1-yl)-(2-phenylethynyl-thiazol-5-yl)-methanone], in test [2], the “maximum modulation (Emax)” value turned out to be 140% and the 50% effective concentration (EC50) came to 58 nM.

By IC50 is commonly meant the point on the concentration scale where inhibition reaches its midpoint. In general, EC50 refers to the concentration at which the effect is half-maximal. A word on the Ki: it is the equilibrium dissociation constant of an inhibitor or competing ligand from its target. A high value points to weaker binding.
